Test results published in patent US9079901B2, “Fused heterocyclic compounds as ion channel modulators” (Gilead Sciences, Inc., priority 2010, dated 2015).

Target: wild-type human cardiac sodium channel, hNav1.5 (late sodium current) in HEK293 cells (Homo sapiens, UniProt Q14524)
Test: Late INa screening assay (automated whole-cell patch clamp, PatchXpress)
Format: cell-based
Conditions: HEK293, compound at 1 μM; late INa generated with 10 μM Tefluthrin (or 50 nM ATX II); HEK293 hNav1.5; read-out: Late INa 1 μM (percent block of late INa)
Procedure, shortened: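 hNav1.5-expressing HEK293 cells (no β subunits) were recorded by automated whole-cell patch clamp at 24–27 °C with CsF-based internal solution. Late current was induced by 10 μM tefluthrin (or 50 nM ATX II) and evoked by 250 ms steps from −120 to −20 mV at 0.1 Hz. Compounds, typically 10 μM, were applied in three additions over 7–8 min; mean current at 225–250 ms, normalised to 0Na baseline, gave percent block.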

Sequence of wild-type human cardiac sodium channel, hNav1.5 (late sodium current) in HEK293 cells (Q14524 whole entry): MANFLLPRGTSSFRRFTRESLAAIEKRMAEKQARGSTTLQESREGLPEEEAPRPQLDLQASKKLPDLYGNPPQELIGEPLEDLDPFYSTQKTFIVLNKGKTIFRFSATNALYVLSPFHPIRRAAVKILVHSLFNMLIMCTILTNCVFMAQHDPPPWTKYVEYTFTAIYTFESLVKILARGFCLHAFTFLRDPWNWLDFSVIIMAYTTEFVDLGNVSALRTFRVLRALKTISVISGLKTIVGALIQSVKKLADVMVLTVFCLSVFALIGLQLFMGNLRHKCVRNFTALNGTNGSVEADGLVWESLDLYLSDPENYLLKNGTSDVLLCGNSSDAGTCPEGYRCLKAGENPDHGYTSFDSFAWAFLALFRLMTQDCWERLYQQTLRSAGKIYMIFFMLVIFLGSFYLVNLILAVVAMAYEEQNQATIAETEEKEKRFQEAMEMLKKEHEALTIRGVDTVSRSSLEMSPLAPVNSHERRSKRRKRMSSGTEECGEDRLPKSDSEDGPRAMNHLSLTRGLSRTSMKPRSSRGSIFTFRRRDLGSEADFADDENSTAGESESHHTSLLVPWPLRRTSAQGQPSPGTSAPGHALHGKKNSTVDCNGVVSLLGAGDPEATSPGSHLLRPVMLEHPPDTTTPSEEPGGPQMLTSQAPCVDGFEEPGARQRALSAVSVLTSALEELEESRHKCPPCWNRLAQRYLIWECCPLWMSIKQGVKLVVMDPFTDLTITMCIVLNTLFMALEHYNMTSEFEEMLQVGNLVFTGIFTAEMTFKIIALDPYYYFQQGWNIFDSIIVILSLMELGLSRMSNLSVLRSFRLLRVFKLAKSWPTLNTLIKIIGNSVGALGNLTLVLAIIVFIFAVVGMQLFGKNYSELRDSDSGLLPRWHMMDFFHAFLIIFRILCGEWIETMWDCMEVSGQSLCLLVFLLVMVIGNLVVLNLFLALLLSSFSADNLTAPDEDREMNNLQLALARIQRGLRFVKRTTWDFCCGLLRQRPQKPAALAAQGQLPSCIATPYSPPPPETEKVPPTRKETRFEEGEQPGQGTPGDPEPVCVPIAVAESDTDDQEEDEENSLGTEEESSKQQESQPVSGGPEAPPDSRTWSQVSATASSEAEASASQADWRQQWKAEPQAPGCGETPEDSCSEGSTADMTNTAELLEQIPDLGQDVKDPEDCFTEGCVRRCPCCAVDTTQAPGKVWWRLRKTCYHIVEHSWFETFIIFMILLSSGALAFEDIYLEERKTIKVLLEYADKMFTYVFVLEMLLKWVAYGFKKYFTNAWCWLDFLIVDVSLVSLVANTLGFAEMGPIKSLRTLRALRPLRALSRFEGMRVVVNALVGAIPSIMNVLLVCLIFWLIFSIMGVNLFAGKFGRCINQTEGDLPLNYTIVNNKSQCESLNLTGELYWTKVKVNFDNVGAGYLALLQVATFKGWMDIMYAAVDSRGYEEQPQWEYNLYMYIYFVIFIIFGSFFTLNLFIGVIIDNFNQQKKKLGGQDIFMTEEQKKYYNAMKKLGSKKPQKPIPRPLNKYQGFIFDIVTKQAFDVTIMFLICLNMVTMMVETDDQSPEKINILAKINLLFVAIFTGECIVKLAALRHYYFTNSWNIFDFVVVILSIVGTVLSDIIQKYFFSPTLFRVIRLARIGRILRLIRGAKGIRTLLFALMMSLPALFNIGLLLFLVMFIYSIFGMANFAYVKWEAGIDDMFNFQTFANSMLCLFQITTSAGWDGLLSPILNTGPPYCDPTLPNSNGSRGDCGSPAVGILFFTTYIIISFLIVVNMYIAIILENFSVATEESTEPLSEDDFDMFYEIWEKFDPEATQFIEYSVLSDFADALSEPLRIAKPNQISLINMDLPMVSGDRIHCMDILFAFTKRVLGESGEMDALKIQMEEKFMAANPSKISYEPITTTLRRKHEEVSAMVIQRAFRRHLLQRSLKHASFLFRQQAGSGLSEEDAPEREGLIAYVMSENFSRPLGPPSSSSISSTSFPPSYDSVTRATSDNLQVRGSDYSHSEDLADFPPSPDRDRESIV

| SMILES | inhibition at 1 µM [%] |
| --- | --- |
| O=c1n(CCc2ccc(-c3cccnc3)cn2)nc2ccc(-c3ccc(OC(F)(F)F)cc3)cn12 [compound 74, 2-(2-(3,3′-bipyridin-6-yl)ethyl)-6-(4-(trifluoromethoxy)phenyl)-[1,2,4]triazolo[4,3-a]pyridin-3(2H)-one] | 11.1 |
| Cc1ccc(OCCn2nc3ccc(-c4ccc(OC(F)(F)F)cc4)cn3c2=O)cc1 [compound 75, 2-(2-(p-tolyloxy)ethyl)-6-(4-(trifluoromethoxy)phenyl)-[1,2,4]triazolo[4,3-a]pyridin-3(2H)-one] | 25.7 |
| O=c1n(CCCc2ccc(F)cc2)nc2ccc(-c3ccc(OC(F)(F)F)cc3)cn12 [compound 76, 2-(3-(4-fluorophenyl)propyl)-6-(4-(trifluoromethoxy)phenyl)-[1,2,4]triazolo[4,3-a]pyridin-3(2H)-one] | 19 |
| O=c1n(CC2CCc3ccccc3O2)nc2ccc(-c3ccc(OC(F)(F)F)cc3)cn12 (centres unmarked) [compound 77, 2-(chroman-2-ylmethyl)-6-(4-(trifluoromethoxy)phenyl)-[1,2,4]triazolo[4,3-a]pyridin-3(2H)-one] | 32.1 |
| O=c1n(CCc2ccc(F)cc2F)nc2ccc(-c3ccc(OC(F)(F)F)cc3)cn12 [compound 78, 2-(2,4-difluorophenethyl)-6-(4-(trifluoromethoxy)phenyl)-[1,2,4]triazolo[4,3-a]pyridin-3(2H)-one] | 36.7 |
| O=c1n(CCCOc2cccnn2)nc2ccc(-c3ccc(OC(F)(F)F)cc3)cn12 [compound 79, 2-(3-(pyridazin-3-yloxy)propyl)-6-(4-(trifluoromethoxy)phenyl)-[1,2,4]triazolo[4,3-a]pyridin-3(2H)-one] | 11.7 |
| COC(COc1ccccc1Cl)Cn1nc2ccc(-c3ccc(OC(F)(F)F)cc3)cn2c1=O (centres unmarked) [compound 80, 2-(3-(2-chlorophenoxy)-2-methoxypropyl)-6-(4-(trifluoromethoxy)phenyl)-[1,2,4]triazolo[4,3-a]pyridin-3(2H)-one] | 33.4 |
| O=c1n(CCOc2cccnn2)nc2ccc(-c3ccc(OC(F)(F)F)cc3)cn12 [compound 81, 2-(2-(pyridazin-3-yloxy)ethyl)-6-(4-(trifluoromethoxy)phenyl)-[1,2,4]triazolo[4,3-a]pyridin-3(2H)-one] | 11 |
| Cc1cnc(OCCn2nc3ccc(-c4ccc(OC(F)(F)F)cc4)cn3c2=O)nc1 [compound 82, 2-(2-(5-methylpyrimidin-2-yloxy)ethyl)-6-(4-(trifluoromethoxy)phenyl)-[1,2,4]triazolo[4,3-a]pyridin-3(2H)-one] | 32.5 |
| Cc1noc(Cn2nc3ccc(-c4ccc(OCC(F)(F)F)cc4)cn3c2=O)n1 [compound 83, 2-((3-methyl-1,2,4-oxadiazol-5-yl)methyl)-6-(4-(2,2,2-trifluoroethoxy)phenyl)-[1,2,4]triazolo[4,3-a]pyridin-3(2H)-one] | 10.7 |
| Cc1noc(-c2ccccc2OCCn2nc3ccc(-c4ccc(OC(F)(F)F)cc4)cn3c2=O)n1 [compound 84, 2-(2-(2-(3-methyl-1,2,4-oxadiazol-5-yl)phenoxy)ethyl)-6-(4-(trifluoromethoxy)phenyl)-[1,2,4]triazolo[4,3-a]pyridin-3(2H)-one] | 34.3 |
| O=c1n(CCCOc2cnccn2)nc2ccc(-c3ccc(OC(F)(F)F)cc3)cn12 [compound 85, 2-(3-(pyrazin-2-yloxy)propyl)-6-(4-(trifluoromethoxy)phenyl)-[1,2,4]triazolo[4,3-a]pyridin-3(2H)-one] | 12.2 |
| Cc1nc(COCCn2nc3ccc(-c4ccc(OC(F)(F)F)cc4)cn3c2=O)no1 [compound 86, 2-(2-((5-methyl-1,2,4-oxadiazol-3-yl)methoxy)ethyl)-6-(4-(trifluoromethoxy)phenyl)-[1,2,4]triazolo[4,3-a]pyridin-3(2H)-one] | 17.5 |
| Cc1noc(Cn2nc3ccc(-c4ccc(OC(F)(F)F)cc4C)cn3c2=O)n1 [compound 87, 2-((3-methyl-1,2,4-oxadiazol-5-yl)methyl)-6-(2-methyl-4-(trifluoromethoxy)phenyl)-[1,2,4]triazolo[4,3-a]pyridin-3(2H)-one] | 21.3 |
| Cc1cc(C)nc(OCCn2nc3ccc(-c4ccc(OC(F)(F)F)cc4)cn3c2=O)n1 [compound 88, 2-(2-(4,6-dimethylpyrimidin-2-yloxy)ethyl)-6-(4-(trifluoromethoxy)phenyl)-[1,2,4]triazolo[4,3-a]pyridin-3(2H)-one] | 20.8 |
| O=c1n(CC(COc2ccccc2Cl)Oc2ncccn2)nc2ccc(-c3ccc(OC(F)(F)F)cc3)cn12 (centres unmarked) [compound 89, 2-(3-(2-chlorophenoxy)-2-(pyrimidin-2-yloxy)propyl)-6-(4-(trifluoromethoxy)phenyl)-[1,2,4]triazolo[4,3-a]pyridin-3(2H)-one] | 16 |

| SMILES | inhibition at 1 µM [%] |
| --- | --- |
| O=c1n(CCOc2nccc(C3CC3)n2)nc2ccc(-c3ccc(OC(F)(F)F)cc3)cn12 [compound 90, 2-(2-(4-cyclopropylpyrimidin-2-yloxy)ethyl)-6-(4-(trifluoromethoxy)phenyl)-[1,2,4]triazolo[4,3-a]pyridin-3(2H)-one] | 36.3 |
| COC[C@H](Cn1nc2ccc(-c3ccc(OC(F)(F)F)cc3)cn2c1=O)Oc1ncccc1C(F)(F)F [compound 91, (S)-2-(3-methoxy-2-(3-(trifluoromethyl)pyridin-2-yloxy)propyl)-6-(4-(trifluoromethoxy)phenyl)-[1,2,4]triazolo[4,3-a]pyridin-3(2H)-one] | 58.3 |
| O=c1n(CCOc2ncc(Cl)cn2)nc2ccc(-c3ccc(OC(F)(F)F)cc3)cn12 [compound 92, 2-(2-(5-chloropyrimidin-2-yloxy)ethyl)-6-(4-(trifluoromethoxy)phenyl)-[1,2,4]triazolo[4,3-a]pyridin-3(2H)-one] | 35.3 |
| Cc1noc(Cn2nc3ccc(-c4ccc(Oc5ccc(F)cc5)cc4)cn3c2=O)n1 [compound 93, 6-(4-(4-fluorophenoxy)phenyl)-2-((3-methyl-1,2,4-oxadiazol-5-yl)methyl)-[1,2,4]triazolo[4,3-a]pyridin-3(2H)-one] | 71.3 |
| CC(=O)OCc1nc(Cn2nc3ccc(-c4ccc(OC(F)(F)F)cc4)cn3c2=O)no1 [compound 94, (3-((3-oxo-6-(4-(trifluoromethoxy)phenyl)-[1,2,4]triazolo[4,3-a]pyridin-2(3H)-yl)methyl)-1,2,4-oxadiazol-5-yl)methyl acetate] | 28.2 |
| CO[C@H](COc1ccccc1Cl)Cn1nc2ccc(-c3ccc(OC(F)(F)F)cc3)cn2c1=O [compound 95, (S)-2-(3-(2-chlorophenoxy)-2-methoxypropyl)-6-(4-(trifluoromethoxy)phenyl)-[1,2,4]triazolo[4,3-a]pyridin-3(2H)-one] | 42.5 |
| CO[C@@H](COc1ccccc1Cl)Cn1nc2ccc(-c3ccc(OC(F)(F)F)cc3)cn2c1=O [compound 96, (R)-2-(3-(2-chlorophenoxy)-2-methoxypropyl)-6-(4-(trifluoromethoxy)phenyl)-[1,2,4]triazolo[4,3-a]pyridin-3(2H)-one] | 46.1 |
| Cn1c(CCn2nc3ccc(-c4ccc(OC(F)(F)F)cc4)cn3c2=O)nc2ccccc21 [compound 97, 2-(2-(1-methyl-1H-benzo[d]imidazol-2-yl)ethyl)-6-(4-(trifluoromethoxy)phenyl)-[1,2,4]triazolo[4,3-a]pyridin-3(2H)-one] | 16 |
| COc1cc(F)ccc1OCC(O)Cn1nc2ccc(-c3ccc(OC(F)(F)F)cc3)cn2c1=O (centres unmarked) [compound 98, 2-(3-(4-fluoro-2-methoxyphenoxy)-2-hydroxypropyl)-6-(4-(trifluoromethoxy)phenyl)-[1,2,4]triazolo[4,3-a]pyridin-3(2H)-one] | 23.2 |
| CCOc1ccccc1OCC(O)Cn1nc2ccc(-c3ccc(OC(F)(F)F)cc3)cn2c1=O (centres unmarked) [compound 99, 2-(3-(2-ethoxyphenoxy)-2-hydroxypropyl)-6-(4-(trifluoromethoxy)phenyl)-[1,2,4]triazolo[4,3-a]pyridin-3(2H)-one] | 36.5 |
| O=c1n(CC(O)COc2ccccc2-c2ccccc2)nc2ccc(-c3ccc(OC(F)(F)F)cc3)cn12 (centres unmarked) [compound 100, 2-(3-(biphenyl-2-yloxy)-2-hydroxypropyl)-6-(4-(trifluoromethoxy)phenyl)-[1,2,4]triazolo[4,3-a]pyridin-3(2H)-one] | 18 |
| N#Cc1ccccc1OCC(O)Cn1nc2ccc(-c3ccc(OC(F)(F)F)cc3)cn2c1=O (centres unmarked) [compound 101, 2-(2-hydroxy-3-(3-oxo-6-(4-(trifluoromethoxy)phenyl)-[1,2,4]triazolo[4,3-a]pyridin-2(3H)-yl)propoxy)benzonitrile] | 11.7 |
| CC(Cn1nc2ccc(-c3ccc(OC(F)(F)F)cc3)cn2c1=O)c1ccccn1 (centres unmarked) [compound 102, 2-(2-(pyridin-2-yl)propyl)-6-(4-(trifluoromethoxy)phenyl)-[1,2,4]triazolo[4,3-a]pyridin-3(2H)-one] | 36.2 |
| COc1cccc(CCn2nc3ccc(-c4ccc(OC(F)(F)F)cc4)cn3c2=O)n1 [compound 103, 2-(2-(6-methoxypyridin-2-yl)ethyl)-6-(4-(trifluoromethoxy)phenyl)-[1,2,4]triazolo[4,3-a]pyridin-3(2H)-one] | 49.7 |
| COc1cc(F)ccc1OCC(Cn1nc2ccc(-c3ccc(OC(F)(F)F)cc3)cn2c1=O)OC (centres unmarked) [compound 104, 2-(3-(4-fluoro-2-methoxyphenoxy)-2-methoxypropyl)-6-(4-(trifluoromethoxy)phenyl)-[1,2,4]triazolo[4,3-a]pyridin-3(2H)-one] | 41.5 |
| CCOC(COc1ccc(F)cc1OC)Cn1nc2ccc(-c3ccc(OC(F)(F)F)cc3)cn2c1=O (centres unmarked) [compound 105, 2-(2-ethoxy-3-(4-fluoro-2-methoxyphenoxy)propyl)-6-(4-(trifluoromethoxy)phenyl)-[1,2,4]triazolo[4,3-a]pyridin-3(2H)-one] | 45 |
